This passage reports IC50 results from patent US20100125087A1, “NEW COMPOUNDS 575” (AstraZeneca AB, priority 2008, published 2010).

The target in the experiment is T1, human β-Secretase (Homo sapiens, UniProt P56817).
T1 construct: soluble part of the human β-Secretase (AA 1-AA 460); Fc domain of IgG1 (C); made in house
Briefly: TR-FRET assay. The format is biochemical. The note with it: sBACE-Fc, substrate (Europium)CEVNLDAEFK(Qsy7) 100 nM, pH4.5, unit not in table. The method, then:
The β-secretase enzyme used in the TR-FRET is prepared as follows:
The cDNA for the soluble part of the human β-Secretase (AA 1-AA 460) was cloned using the ASP2-Fc10-1-IRES-GFP-neoK mammalian expression vector. The gene was fused to the Fc domain of IgG1 (affinity tag) and stably cloned into HEK 293 cells.
The enzyme (truncated form) was diluted to 6 μg/mL (stock 1.3 mg/mL) and the substrate (Europium)CEVNLDAEFK(Qsy7) to 200 nM (stock 120 μM) in reaction buffer (NaAcetate, chaps, triton x-100, EDTA pH4.5). The robotic systems Biomek FX and Velocity 11 were used for all liquid handling and the enzyme and substrate solutions were kept on ice until they were placed in the robotic system. Enzyme (9 μl) was added to the plate then 1 μl of compound in dimethylsulphoxide was added, mixed and pre-incubated for 10 minutes. Substrate (10 μl) was then added, mixed and the reaction proceeded for 15 minutes at room temperature. The reaction was stopped with the addition of Stop solution (7 μl, NaAcetate, pH 9). The fluorescence of the product was measured on a Victor II plate reader with an excitation wavelength of 340 nm and an emission wavelength of 615 nm. The assay was performed in a Costar 384 well round bottom, low volume, non-binding surface plate (Corning #3676). […] The dimethylsulphoxide control, instead of test compound, defined the 100% activity level and 0% activity was defined by wells lacking enzyme (replaced with reaction buffer).
For orientation: In TR-FRET formats the signal depends on donor and acceptor labels being close together.

Where a name gives a salt, the structure may show the parent alone.

T1 sequence (P56817 22-460): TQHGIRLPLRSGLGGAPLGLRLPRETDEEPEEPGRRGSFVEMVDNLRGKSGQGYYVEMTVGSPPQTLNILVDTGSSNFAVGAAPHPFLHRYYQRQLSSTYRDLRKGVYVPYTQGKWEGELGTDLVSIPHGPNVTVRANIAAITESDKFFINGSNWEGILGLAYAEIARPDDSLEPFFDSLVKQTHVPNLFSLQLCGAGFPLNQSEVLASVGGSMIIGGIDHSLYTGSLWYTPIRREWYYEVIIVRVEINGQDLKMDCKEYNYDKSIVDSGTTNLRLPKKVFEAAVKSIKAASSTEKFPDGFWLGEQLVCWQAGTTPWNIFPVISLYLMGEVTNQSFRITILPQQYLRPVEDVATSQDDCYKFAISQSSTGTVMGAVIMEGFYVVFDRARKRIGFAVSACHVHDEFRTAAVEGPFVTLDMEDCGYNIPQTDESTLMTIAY

Consider `Cc1cc(C2(c3cccc(OCCCF)c3)N=C(N)c3ncccc32)ccn1` (stereo not drawn) [Example 13, 5-(3-(3-Fluoropropoxy)phenyl)-5-(2-methylpyridin-4-yl)-5H-pyrrolo[3,4-b]pyridin-7-amine], for which the IC50 (as a rule, the concentration that inhibits the measured activity by half) was determined as 2700 nM.
The compound `CC(C)COc1cccc(C2(c3ccc(OC(F)F)nc3)N=C(N)c3ncccc32)c1` (stereo not drawn) [Example 17, acetate] yielded a half-inhibitory concentration (IC50) of 1300 nM.
Regarding `COc1cccc(C2(c3ccncc3)N=C(N)c3ncccc32)c1` (stereo not drawn) [Example 9i, 5-(3-Methoxyphenyl)-5-(pyridin-4-yl)-5H-pyrrolo[3,4-b]pyridin-7-amine], half-maximal inhibition (IC50) was put at 26000 nM. Against the preceding compound, the IC50 is about 20-fold higher.
The compound `COc1c(C)cc(C2(c3cccc(OCCC(F)F)c3)N=C(N)c3ncccc32)nc1C` (stereo not drawn) [Example 22, 5-(3-(3,3-Difluoropropoxy)phenyl)-5-(5-methoxy-4,6-dimethylpyridin-2-yl)-5H-pyrrolo[3,4-b]pyridin-7-amine acetic acid salt] showed a 50% inhibitory concentration (IC50) of 337 nM.
`Cc1cc(C2(c3cccc(OCCCF)c3)N=C(N)c3ncccc32)cc(OC(F)F)n1` (stereo not drawn) [Example 19, 5-(2-(Difluoromethoxy)-6-methylpyridin-4-yl)-5-(3-(3-fluoropropoxy)phenyl)-5H-pyrrolo[3,4-b]pyridin-7-amine] displayed an IC50 of 909 nM. This IC50 lies about 2.7-fold higher than the previous one.
For `Cc1cc(C2(c3cccc(OCC(C)C)c3)N=C(N)c3ncccc32)cc(C)n1` (stereo not drawn) [Example 15, 5-(2,6-Dimethylpyridin-4-yl)-5-(3-isobutoxyphenyl)-5H-pyrrolo[3,4-b]pyridin-7-amine acetate], the IC50 stood at 3800 nM.
As to `COc1c(C)cc(C2(c3cccc(OCCCF)c3)N=C(N)c3ncccc32)cc1C` (stereo not drawn) [Example 11, 5-(3-(3-Fluoropropoxy)phenyl)-5-(4-methoxy-3,5-dimethylphenyl)-5H-pyrrolo[3,4-b]pyridin-7-amine], the IC50 is 81 nM.
Consider `NC1=NC(c2cccc(OCCC(F)F)c2)(c2ccnc(C(F)(F)F)c2)c2cccnc21` (stereo not drawn) [Example 21, 5-(3-(3,3-Difluoropropoxy)phenyl)-5-(2-(trifluoromethyl)pyridin-4-yl)-5H-pyrrolo[3,4-b]pyridin-7-amine trifluoroacetic acid salt], for which the midpoint of inhibition, the IC50, lay at 1150 nM.
`NC1=NC(c2ccncc2)(c2cccc(OCC3CC3(F)F)c2)c2cccnc21` (stereo not drawn) [Example 5, 5-(3-((2,2-Difluorocyclopropyl)methoxy)phenyl)-5-(pyridin-4-yl)-5H-pyrrolo[3,4-b]pyridin-7-amine]: the IC50 was found to be 2300 nM.
`COc1ccc(C2(c3cccc(OCCCF)c3)N=C(N)c3ncccc32)cc1C(F)(F)F` (stereo not drawn) [Example 14, 5-(3-(3-Fluoropropoxy)phenyl)-5-(4-methoxy-3-(trifluoromethyl)phenyl)-5H-pyrrolo[3,4-b]pyridin-7-amine] registered an IC50 of 960 nM.
Then `NC1=NC(c2cccc(OCC3CCC3)c2)(c2ccnc(C(F)(F)F)c2)c2cccnc21` (stereo not drawn) [Example 7, 5-(3-(Cyclobutylmethoxy)phenyl)-5-(2-(trifluoromethyl)pyridin-4-yl)-5H-pyrrolo[3,4-b]pyridin-7-amine], with 1200 nM; and `NC1=NC(c2cccc(OCCCF)c2)(c2ccnc(C(F)(F)F)c2)c2cccnc21` (stereo not drawn) [Example 6, 5-(3-(3-Fluoropropoxy)phenyl)-5-(2-(trifluoromethyl)pyridin-4-yl)-5H-pyrrolo[3,4-b]pyridin-7-amine], with 1500 nM; and `NC1=NC(c2ccncc2)(c2cccc(OC3CCCC3)c2)c2cccnc21` (stereo not drawn) [Example 8, 5-(3-(Cyclopentyloxy)phenyl)-5-(pyridin-4-yl)-5H-pyrrolo[3,4-b]pyridin-7-amine], with 3000 nM.
In the case of `COc1ccc(C2(c3cccc(OCCCF)c3)N=C(N)c3ncccc32)cc1Cl` (stereo not drawn) [Example 20, 5-(3-Chloro-4-methoxyphenyl)-5-(3-(3-fluoropropoxy)phenyl)-5H-pyrrolo[3,4-b]pyridin-7-amine], the concentration for half-maximal inhibition (IC50) worked out at 779 nM.
Compound `CC(C)CCOc1cccc(C2(c3ccncc3)N=C(N)c3ncccc32)c1` (stereo not drawn) [Example 2, 5-(3-(Isopentyloxy)phenyl)-5-(pyridin-4-yl)-5H-pyrrolo[3,4-b]pyridin-7-amine] returned an IC50 of 1700 nM.
To `NC1=NC(c2ccncc2)(c2cccc(OCC3CCCC3)c2)c2cccnc21` (stereo not drawn) [Example 3, 5-(3-(Cyclopentylmethoxy)phenyl)-5-(pyridin-4-yl)-5H-pyrrolo[3,4-b]pyridin-7-amine] belongs 1500 nM; to `NC1=NC(c2ccncc2)(c2cccc(OCCCF)c2)c2cccnc21` (stereo not drawn) [Example 10, 5-(3-(3-Fluoropropoxy)phenyl)-5-(pyridin-4-yl)-5H-pyrrolo[3,4-b]pyridin-7-amine], 2400 nM; to `NC1=NC(c2cccc(OCCCF)c2)(c2ccnc(OC(F)F)c2)c2cccnc21` (stereo not drawn) [Example 23, 5-(2-(Difluoromethoxy)pyridin-4-yl)-5-(3-(3-fluoropropoxy)phenyl)-5H-pyrrolo[3,4-b]pyridin-7-amine 1.67 acetic acid], 2620 nM.
In the case of `CC(C)COc1cccc(C2(c3ccncc3)N=C(N)c3ncccc32)c1` (stereo not drawn) [Example 1, 5-(3-Isobutoxyphenyl)-5-(pyridin-4-yl)-5H-pyrrolo[3,4-b]pyridin-7-amine], the half-maximal inhibitory concentration (IC50) amounted to 640 nM.
The compound `CC(C)COc1cccc(C2(c3ccc(OC(F)F)cc3)N=C(N)c3ncccc32)c1` (stereo not drawn) [Example 18, 5-(4-(Difluoromethoxy)phenyl)-5-(3-isobutoxyphenyl)-5H-pyrrolo[3,4-b]pyridin-7-amine] returned a half-inhibitory concentration (IC50) of 150 nM.
Compound `NC1=NC(c2ccncc2)(c2cccc(OCC3CCC3)c2)c2cccnc21` (stereo not drawn) [Example 4, 5-(3-(Cyclobutylmethoxy)phenyl)-5-(pyridin-4-yl)-5H-pyrrolo[3,4-b]pyridin-7-amine] yielded an IC50 of 2700 nM.
In turn, `NC1=NC(c2ccncc2)(c2cccc(OC3CCC3)c2)c2cccnc21` (stereo not drawn) [Example 9, 5-(3-Cyclobutoxyphenyl)-5-(pyridin-4-yl)-5H-pyrrolo[3,4-b]pyridin-7-amine] displayed an IC50 of 8000 nM.
Then `COc1ncc(C2(c3cccc(OCC(C)C)c3)N=C(N)c3ncccc32)cc1C` (stereo not drawn) [Example 16, 5-(3-Isobutoxyphenyl)-5-(6-methoxy-5-methylpyridin-3-yl)-5H-pyrrolo[3,4-b]pyridin-7-amine acetate], with 3100 nM; and `COc1cc(C2(c3cccc(OCCCF)c3)N=C(N)c3ncccc32)ccn1` (stereo not drawn) [Example 12, 5-(3-(3-Fluoropropoxy)phenyl)-5-(2-methoxypyridin-4-yl)-5H-pyrrolo[3,4-b]pyridin-7-amine], with 2700 nM.
